US12577206B2 (BRISTOL-MYERS SQUIBB COMPANY, priority 2020, dated 2026)

Columns and labels:
[1] = molecular target: T1, human FPR1 (Homo sapiens, UniProt P21462); experiment: FPR1 cyclic adenosine monophosphate (cAMP) assay; assay type: cell-based; settings: CHO cells overexpressing human FPR1; forskolin 10 μM; inhibition of cAMP production; HTRF; read-out: hFPR1 cAMP2 EC50
T1 sequence (P21462 1-350): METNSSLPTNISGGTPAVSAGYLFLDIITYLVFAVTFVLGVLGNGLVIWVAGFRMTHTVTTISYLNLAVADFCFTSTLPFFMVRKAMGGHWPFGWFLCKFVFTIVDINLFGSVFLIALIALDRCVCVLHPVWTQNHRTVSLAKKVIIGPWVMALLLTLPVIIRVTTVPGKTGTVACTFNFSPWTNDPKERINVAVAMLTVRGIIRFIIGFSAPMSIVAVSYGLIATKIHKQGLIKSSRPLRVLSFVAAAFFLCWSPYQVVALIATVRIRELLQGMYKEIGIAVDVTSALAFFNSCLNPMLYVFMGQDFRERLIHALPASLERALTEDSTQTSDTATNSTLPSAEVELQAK
Method in brief: (§1)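 Gi-coupled activity is read as suppression of forskolin-stimulated cAMP (10 μM final for FPR1, 5 μM final for FPR2; IBMX 200 μM final) in recombinant CHO cells, 30 min incubation at rt, HTRF detection.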

[2] = molecular target: T2, human FPR2 (Homo sapiens, UniProt P25090); experiment: FPR2 cyclic adenosine monophosphate (cAMP) assay; assay type: cell-based; settings: CHO cells overexpressing human FPR2; forskolin 5 μM; inhibition of cAMP production; HTRF; read-out: hFPR2 cAMP2 EC50
T2 sequence (P25090 1-351): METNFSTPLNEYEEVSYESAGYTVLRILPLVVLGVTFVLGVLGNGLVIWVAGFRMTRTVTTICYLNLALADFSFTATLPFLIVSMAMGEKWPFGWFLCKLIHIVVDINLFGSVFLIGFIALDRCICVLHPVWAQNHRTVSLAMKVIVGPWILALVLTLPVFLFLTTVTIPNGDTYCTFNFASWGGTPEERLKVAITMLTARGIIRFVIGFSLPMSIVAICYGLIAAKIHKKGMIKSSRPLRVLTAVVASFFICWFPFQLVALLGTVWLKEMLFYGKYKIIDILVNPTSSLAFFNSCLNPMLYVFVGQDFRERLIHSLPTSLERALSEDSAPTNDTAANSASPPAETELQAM
Method in brief: as §1

Row | Compound | EC50 [1] | EC50 [2]
1 | COc1cc(F)c(-c2c(NC(=O)c3ccc(OC(F)F)cc3)c(=O)n(-c3ccc(F)cc3)n2C)c(F)c1 [Example 12, N-[5-(2,6-difluoro-4-methoxyphenyl)-2-(4-fluorophenyl)-1-methyl-3-oxo-2,3-dihydro-1H-pyrazol-4-yl]-4-(difluoromethoxy)benzamide] | 1600 nM | 17 nM
2 | COc1cc(F)c(-c2c(NC(=O)c3ccc(OC(F)F)cc3)c(=O)n(-c3cnc4ccccc4n3)n2C)c(F)c1 [Example 64, N-[5-(2,6-difluoro-4-methoxyphenyl)-1-methyl-3-oxo-2-(quinoxalin-2-yl)-2,3-dihydro-1H-pyrazol-4-yl]-4-(difluoromethoxy)benzamide] | 800 nM | 11 nM
3 | COc1cc(-n2c(=O)c(NC(=O)c3ccc(OC(F)F)cc3)c(-c3c(F)cc(OC)cc3F)n2C)nc(C(C)(C)O)c1 [Example 89, N-[5-(2,6-difluoro-4-methoxyphenyl)-2-[6-(2-hydroxypropan-2-yl)-4-methoxypyridin-2-yl]-1-methyl-3-oxo-2,3-dihydro-1H-pyrazol-4-yl]-4-(difluoromethoxy)benzamide] | 900 nM | 3 nM
4 | COc1cc(F)c(-c2c(NC(=O)c3ccc(Cl)cc3)c(=O)n(-c3ccccc3)n2C)c(F)c1 [Example 9, 4-chloro-N-[5-(2,6-difluoro-4-methoxyphenyl)-1-methyl-3-oxo-2-phenyl-2,3-dihydro-1H-pyrazol-4-yl]benzamide] | > 10000 nM | 11 nM
5 | COc1cc(F)c(-c2c(NC(=O)c3ccc(OC(F)F)cc3)c(=O)n(-c3nc(N4C5CCC4CN(C)C5)ccc3C(F)(F)F)n2C)c(F)c1 [Example 137, N-[5-(2,6-difluoro-4-methoxyphenyl)-1-methyl-2-(6-{3-methyl-3,8-diazabicyclo[3.2.1]octan-8-yl}-3-(trifluoromethyl)pyridin-2-yl)-3-oxo-2,3-dihydro-1H-pyrazol-4-yl]-4-(difluoromethoxy)benzamide] | 7100 nM | 16 nM
6 | CNC(=O)CNc1ccc(C(F)(F)F)c(-n2c(=O)c(NC(=O)c3ccc(OC(F)F)cc3)c(-c3c(F)cc(OC)cc3F)n2C)n1 [Example 238, N-[5-(2,6-difluoro-4-methoxyphenyl)-1-methyl-2-(6-{[(methylcarbamoyl)methyl]amino}-3-(trifluoromethyl)pyridin-2-yl)-3-oxo-2,3-dihydro-1H-pyrazol-4-yl]-4-(difluoromethoxy)benzamide] | > 10000 nM | 3 nM
7 | COc1cccc(-n2c(=O)c(NC(=O)c3ccc(OC(F)F)cc3)c(-c3c(F)cc(OC)cc3F)n2C)c1 [Example 112, N-[5-(2,6-difluoro-4-methoxyphenyl)-2-(3-methoxyphenyl)-1-methyl-3-oxo-2,3-dihydro-1H-pyrazol-4-yl]-4-(difluoromethoxy)benzamide] | 3 nM | 5 nM
8 | COc1cc(F)c(-c2c(NC(=O)c3ccc(OC(F)F)cc3)c(=O)n(-c3cccc(Cl)c3C)n2C)c(F)c1 [Example 37, N-[2-(3-chloro-2-methylphenyl)-5-(2,6-difluoro-4-methoxyphenyl)-1-methyl-3-oxo-2,3-dihydro-1H-pyrazol-4-yl]-4-(difluoromethoxy)benzamide] | > 10000 nM | 19 nM
9 | CCOC1(c2ccc(C#N)c(-n3c(=O)c(NC(=O)c4ccc(OC(F)F)cc4)c(-c4c(F)cc(OC)cc4F)n3C)n2)CC1 [Example 192, N-{2-[3-cyano-6-(1-ethoxycyclopropyl)pyridin-2-yl]-5-(2,6-difluoro-4-methoxyphenyl)-1-methyl-3-oxo-2,3-dihydro-1H-pyrazol-4-yl}-4-(difluoromethoxy)benzamide] | > 10000 nM | 4 nM
10 | COc1cc(O)c(-c2c(NC(=O)c3ccc(OC(F)F)cc3)c(=O)n(-c3nc(NCCO)ccc3C(F)(F)F)n2C)c(F)c1 [Example 230, 4-(difluoromethoxy)-N-[5-(2-fluoro-6-hydroxy-4-methoxyphenyl)-2-{6-[(2-hydroxyethyl)amino]-3-(trifluoromethyl)pyridin-2-yl}-1-methyl-3-oxo-2,3-dihydro-1H-pyrazol-4-yl]benzamide] | > 10000 nM | 10 nM
11 | COc1cc(F)c(-c2c(NC(=O)c3ccc(OC(F)F)cc3)c(=O)n(C(C)C)n2C)c(F)c1 [Example 18, N-[5-(2,6-difluoro-4-methoxyphenyl)-1-methyl-3-oxo-2-(propan-2-yl)-2,3-dihydro-1H-pyrazol-4-yl]-4-(difluoromethoxy)benzamide] | 4100 nM | 53 nM
12 | COc1cc(F)c(-c2c(NC(=O)c3ccc(OC(F)(F)F)cc3)c(=O)n(-c3cccc(-c4ccccc4)n3)n2C)c(F)c1 [Example 73, N-[5-(2,6-difluoro-4-methoxyphenyl)-1-methyl-3-oxo-2-(6-phenylpyridin-2-yl)-2,3-dihydro-1H-pyrazol-4-yl]-4-(trifluoromethoxy)benzamide] | 950 nM | 13 nM

Next, values leading:

Row | EC50 [1] | EC50 [2] | Compound
13 | > 5000 nM | 2 nM | COc1cc(F)c(-c2c(NC(=O)c3ccc(OC(F)F)cc3)c(=O)n(-c3nc(NC[C@H](O)C(F)(F)F)ccc3C(F)(F)F)n2C)c(F)c1 [Example 274, N-[5-(2,6-difluoro-4-methoxyphenyl)-1-methyl-3-oxo-2-(6-{[(2S)-3,3,3-trifluoro-2-hydroxypropyl]amino}-3-(trifluoromethyl)pyridin-2-yl)-2,3-dihydro-1H-pyrazol-4-yl]-4-(difluoromethoxy)benzamide]
14 | > 10000 nM | 2 nM | COc1cc(OCC2CCOC2)nc(-n2c(=O)c(NC(=O)c3ccc(OC(F)F)cc3)c(-c3c(F)cc(OC)cc3F)n2C)c1 (stereo not drawn) [Example 351, N-(5-(2,6-Difluoro-4-methoxyphenyl)-2-(4-methoxy-6-((tetrahydrofuran-3-yl)methoxy)pyridin-2-yl)-1-methyl-3-oxo-2,3-dihydro-1H-pyrazol-4-yl)-4-(difluoromethoxy)benzamide]
15 | > 5000 nM | 2 nM | COc1cc(F)c(-c2c(NC(=O)c3ccc(OC(F)F)cc3)c(=O)n(-c3nc(N(C)CC(C)(C)O)ccc3C(F)(F)F)n2C)c(F)c1 [Example 261, N-[5-(2,6-difluoro-4-methoxyphenyl)-2-{6-[(2-hydroxy-2-methylpropyl)(methyl)amino]-3-(trifluoromethyl)pyridin-2-yl}-1-methyl-3-oxo-2,3-dihydro-1H-pyrazol-4-yl]-4-(difluoromethoxy)benzamide]
16 | 1100 nM | 7 nM | CC(C)Oc1cc(OCC(C)(C)O)nc(-n2c(=O)c(NC(=O)c3ccc(OC(F)(F)F)cc3)c(-c3c(F)cc(Cl)cc3F)n2C)c1 [Example 408, N-(5-(4-chloro-2,6-difluorophenyl)-2-(6-(2-hydroxy-2-methylpropoxy)-4-isopropoxypyridin-2-yl)-1-methyl-3-oxo-2,3-dihydro-1H-pyrazol-4-yl)-4-(trifluoromethoxy)benzamide]
17 | > 10000 nM | 8 nM | COCC(CO)Oc1cc(OC)cc(-n2c(=O)c(NC(=O)c3ccc(OC(F)F)cc3)c(-c3c(F)cc(OC)cc3F)n2C)n1 (stereo not drawn) [Example 382, N-(5-(2,6-Difluoro-4-methoxyphenyl)-2-(6-((1-hydroxy-3-methoxypropan-2-yl)oxy)-4-methoxypyridin-2-yl)-1-methyl-3-oxo-2,3-dihydro-1H-pyrazol-4-yl)-4-(difluoromethoxy)benzamide]
18 | 7100 nM | 2 nM | COc1cc(F)c(-c2c(NC(=O)c3ccc(OC(F)F)cc3)c(=O)n(-c3nc(N(C4CC4)C4CC4)ccc3C(F)(F)F)n2C)c(F)c1 [Example 267, N-{2-[6-(dicyclopropylamino)-3-(trifluoromethyl)pyridin-2-yl]-5-(2,6-difluoro-4-methoxyphenyl)-1-methyl-3-oxo-2,3-dihydro-1H-pyrazol-4-yl}-4-(difluoromethoxy)benzamide]
19 | 110 nM | 21 nM | Cn1c(-c2ccc(OC(F)(F)F)cc2)c(NC(=O)c2ccc(OC(F)F)cc2)c(=O)n1-c1ncccc1C(F)(F)F [Example 304, 4-(difluoromethoxy)-N-{1-methyl-3-oxo-5-[4-(trifluoromethoxy)phenyl]-2-[3-(trifluoromethyl)pyridin-2-yl]-2,3-dihydro-1H-pyrazol-4-yl}benzamide]
20 | 1600 nM | 15 nM | COc1cc(F)c(-c2c(NC(=O)c3ccc(OC(F)F)cc3)c(=O)n(-c3cc(C#N)cc(C)n3)n2C)c(F)c1 [Example 328, N-(2-(4-Cyano-6-methylpyridin-2-yl)-5-(2,6-difluoro-4-methoxyphenyl)-1-methyl-3-oxo-2,3-dihydro-1H-pyrazol-4-yl)-4-(difluoromethoxy)benzamide]
21 | > 10000 nM | 7 nM | COc1cc(OCC(C)(C)O)nc(-n2c(=O)c(NC(=O)c3ccc(OC(F)F)cc3)c(-c3c(F)cc(OC)cc3F)n2C)c1 [Example 322]
